Results taken from patent US6492329B1, “Cytokine and hemopoietic factor endogenous production enhancer and methods of use thereof” (Novelos Therapeutics, Inc., priority 1995, dated 2002).

What was measured:
[1] = test system: rat embrional fibroblasts (REF); experiment: Number of REF cells throughout 72-hr incubation; assay type: cell-based
Protocol: (§1) To this end, these substances had been incubated for 72 hours with cells of rat embrional fibroblasts (REF) and the same cells, transformed with adenoviral E1A gene in complementation with ras-oncogene (e-ras cell line). Subsequent evaluation of the cellularity of experimental samples was carried out by counting the quantity of cell per milliliter (for REF cell line) or clones in dish (for e-ras cell line).
(§2) Cells were cultivated on DMEM medium supplemented with 10% fetal calf serum and […] gentamicin. Cultivation was carried out in Petri dishes.
(§3) REF cells was cultivated with initial density of 800 000 cell per mL, evaluation of the cellularity was performed at 0, 24, 48 and 72 hours of incubation with the test articles.
(§4) For the test-system for estimation of apoptosis regulation UV-induced cell death was triggered in a dose of 4 Dj. Test articles were added immediately after irradiation. Then, the quantity of cell per milliliter (for REF cell line) or clones in dish (for e-ras cell line) were monitored every 24 hours. For determination of DNA-fragmentation the electrophoresis in agarose gel was used at standard settings.

leukemia P388 cells [2] = experiment: Leukemia P388 in mice: ascitic fluid and survival (Example 14); details: for Accumulation of ascitic (weight gain, %): leukemia P388
Protocol: (§6) An influence of 7 day course of test article daily administration was studied in respect of tumor progression, which was estimated using the two integral indices: pace of mouse weight gain due to accumulation of ascitic fluid, and by animal mean survival time after inoculation.
(§7) The study was carried out on DBA/2 mice weighing 18-21 g. First, tumor cell passage was performed using 6 animals for each cell line. For this, cells kept at the temperature of the liquid nitrogen were de-frozen and adjusted to the concentration of 5×10^6 cells/mL by sterile Hanks' solution. Then, 6 mice were intra peritoneally inoculated with 0.2 mL of each line cellular suspension.
(§8) Ascitic fluid was collected 6 days after the inoculation with L1210 cells, 8 days after the inoculation with P388 ones and 18 days after inoculation with Erlich adenocarcinoma cells. Thus obtained, the samples of passaged tumor cells were used for the main experiments. The fluid liquid was dissolved by sterile Hanks' solution so that cell concentration be 5×10^6 cells/mL for P388 cells and Erlich adenocarcinoma cells, 5×10^5 cells/mL for L1210 cells.
(§9) Eleven groups of animals with no less than 15 mice each were formed for experiments with either tumor cell line. Mice were inoculated with 0.2 mL of resultant cell suspensions per mouse (10^6 P388 and Erlich adenocarcinoma cells/mouse, and 10^5 L1210 cells/mouse). 24 hours after the tumor cells inoculation, animals were given the first injections of the test articles or vehicles. The test article injections were made daily till the 14th day of the experiment or till the animal death. The volume of solutions injected comprised 0.01 mL/g body weight.
(§10) #1—intact animals receiving imitation of tumor cell inoculation (injection of normal saline) which further were treated with normal saline throughout the entire experiment;
(§11) #2—control animals, inoculated with tumor cells, which further were treated with test article vehicle (normal saline);

[3] = test system: e-ras cells after UV-irradiation; experiment: Number of clones of e-ras cells after UV-irradiation; assay type: cell-based, rat
Protocol: as §1, §2
(§5) E-ras cells were seeded at a cell density of 300 cells per 5 cm dish. 7 days after growth of e-ras cells had been started the quantity of clones was evaluated and the test articles were added into the dishes.
as §4

[4] = test system: Erlich adenocarcinoma cells; experiment: Erlich adenocarcinoma in mice: ascitic fluid and survival (Example 14); details: for Accumulation of ascitic (weight gain, %): Erlich adenocarcinoma
Protocol: as §6, §7, §8, §9, §10, §11

normal human lymphocytes = experiment: Proliferation/apoptosis of normal human lymphocytes (cell number per well, flow cytofluorometry); assay type: cell-based
[5] = test system: e-ras cell line (REF transformed with E1A and ras-oncogene); experiment: Number of clones of e-ras cells throughout 72-hr incubation; assay type: cell-based, rat
Protocol: as §1, §2, §5, §4

HL-60 cells = experiment: Proliferation/apoptosis of HL-60 tumor cells (cell number per well, flow cytofluorometry)
Protocol: Subsequent evaluation of the cell cycle parameters was carried out by the flow cytofluorometry technique.
A mononuclear fraction of blood leukocytes were obtained by centrifugation in gradient of fikoll-metrizoat (Histopaque, Sigma). […] Cell viability was estimated by the Trypan blue exclusion method, then the cell suspension was placed into wells of 96-well microtiter plates—200,000 cells per well. […] Cultivation was carried out in closed flasks, the medium volume was 12 mL, it was changed every four days by centrifugation. The nature of the cells growth was suspensive. […] 50 μL of each test solution were added to one or the other cell culture and thereafter cells were cultivated for 24-96 hours. Then, they were tested by the flow cytofluorometry to estimate DNA content in the cell nuclei. In case of apoptosis-like cellular death, the portion of cell nuclei with normal content of DNA became reduced, while the portion of cell nuclei containing abnormally small DNA quantity became larger.
The analysis procedure was the following: after incubation completion, cells were centrifuged and transferred to a standard phosphate isotonic buffer pH 7.4, containing RNA-ase A (20 μg/mL), ethidium bromide (fluorometric indicator for double stranded nucleic acid. 10 μg/mL) and MgCl2 (5 mM). After the cells were disintegrated by nonionic detergent Triton X-100 (final concentration 0.1%). The suspension of cell nuclei thus obtained was analyzed by flow cytofluorometry with an argon laser as a source of light (wave length 488 nm). The red fluorescence due to DNA bound ethidium bromide was taken to be the measure of DNA content in the cell nuclei.

leukemia L1210 cells [6] = experiment: Leukemia L1210 in mice: serum cytokines, ascitic fluid, survival (Example 5); details: for Accumulation of ascitic fluid (weight gain) / Concentration in serum: IFNα / Concentration in serum: IL-1 / Concentration in serum: IL-2 / Concentration in serum: IL-6 / Concentration in serum: TNFα: L1210 mice
Protocol: (§12) An influence of 7 day course of test article daily administration was studied in respect of variations of serum cytokine levels (IL-1, IL-2, IL-6, IFNα, TNF). In parallel, the tumor progression was estimated using the two integral indices: pace of mouse weight gain due to accumulation of ascitic fluid, and by animal mean survival time after inoculation.
(§13) The study was carried out on DBA/2 mice weighing 18-21 g. First, tumor cell passage was performed using 6 animals for each cell line. For this, cells kept at the temperature of the liquid nitrogen were de-frozen and adjusted to the concentration of 5×10^6 cells/mL by sterile Hanks' solution. Then, 6 mice were intraperitoneally inoculated with 0.2 mL of each line cellular suspension.
(§14) Ascitic fluid was collected 6 days after the inoculation with L1210 cells and 8 days after the inoculation with P388 ones. Thus obtained, the samples of passaged tumor cells were used for the main experiments. The fluid liquid was dissolved by sterile Hanks' solution so that cell concentration be 5×10^6 cells/mL for P388 cells and 5×10^5 cells/mL for L1210 cells.
(§15) Nine groups of animals with no less than 15 mice each were formed for experiments with either tumor cell line. Mice were inoculated with 0.2 mL of resultant cell suspensions per mouse (10^6 P388 cells/mouse, and 10^5 L1210 cells/mouse). 24 hours after the tumor cells inoculation. animals were given the first injections of the test articles or vehicles. The test article injections were made daily till the 14th day of the experiment or until the animal's death. The volume of solutions injected comprised 0.01 mL/g body weight.
as §10, §11

leukemia P388 cells [7] = experiment: Leukemia P388 in mice: serum cytokines, ascitic fluid, survival (Example 5); details: for Accumulation of ascitic fluid (weight gain) / Concentration in serum: IFNα / Concentration in serum: IL-1 / Concentration in serum: IL-2 / Concentration in serum: IL-6 / Concentration in serum: TNFα: P388 mice
Protocol: as §12, §13, §14, §15, §10, §11

leukemia L1210 cells [8] = experiment: Leukemia L1210 in mice: ascitic fluid and survival (Example 14); details: for Accumulation of ascitic (weight gain, %): leukemia L1210
[9] = test system: rat embrional fibroblasts (REF) after UV-irradiation; experiment: Number of REF cells after UV-irradiation; assay type: cell-based
Protocol: as §1, §2, §3, §4

Compound: NCCSSCCN [0.1% cystamine, 2,2′-Dithio-bis[ethylamine]]
- number of REF cells (M ± m) ([1]; 0 hours of incubation): 822 ± 14 × 10^3 cells
- number of REF cells (M ± m) ([1]; 24 hours of incubation): 1523 ± 11 × 10^3 cells
- number of REF cells (M ± m) ([1]; 48 hours of incubation): 2486 ± 34 × 10^3 cells
- number of REF cells (M ± m) ([1]; 72 hours of incubation): 5048 ± 126 × 10^3 cells
- Accumulation of ascitic (weight gain, %) (leukemia P388 cells [2]; number of injection 0): 0.4 ± 0.3%
- Accumulation of ascitic (weight gain, %) (leukemia P388 cells [2]; number of injection 3): 5.2 ± 0.6%
- Accumulation of ascitic (weight gain, %) (leukemia P388 cells [2]; number of injection 7): 18.8 ± 1.1%
- Mean survival time (leukemia P388 cells [2]; mice inoculated with leukemia P388 cells): 20.2 ± 0.3
- number of clones of e-ras cells after UV-irradiation (M ± m) ([3]; 0 hours): 276 ± 4
- number of clones of e-ras cells after UV-irradiation (M ± m) ([3]; 24 hours): 181 ± 4
- number of clones of e-ras cells after UV-irradiation (M ± m) ([3]; 48 hours): 111 ± 6
- number of clones of e-ras cells after UV-irradiation (M ± m) ([3]; 72 hours): 108 ± 3
- Accumulation of ascitic (weight gain, %) ([4]; number of injection 0): 0.6 ± 0.2%
- Accumulation of ascitic (weight gain, %) ([4]; number of injection 3): 9.2 ± 0.8%
- Accumulation of ascitic (weight gain, %) ([4]; number of injection 7): 25.8 ± 1.7%
- Mean survival time ([4]; mice inoculated with Erlich adenocarcinoma cells): 10.2 ± 0.8
- number of normal lymphocytes per well (normal human lymphocytes; 24 hours incubation): 30 ± 2 × 10^4 cells
- number of normal lymphocytes per well (normal human lymphocytes; 48 hours incubation): 72 ± 4 × 10^4 cells
- number of normal lymphocytes per well (normal human lymphocytes; 72 hours incubation): 122 ± 9 × 10^4 cells
- number of normal lymphocytes per well (normal human lymphocytes; 96 hours incubation): 196 ± 11 × 10^4 cells
- number of clones of e-ras cells (M ± m) ([5]; 0 hours of incubation): 276 ± 4
- number of clones of e-ras cells (M ± m) ([5]; 24 hours of incubation): 281 ± 4
- number of clones of e-ras cells (M ± m) ([5]; 48 hours of incubation): 271 ± 6
- number of clones of e-ras cells (M ± m) ([5]; 72 hours of incubation): 258 ± 3
- number of HL-60 cells per well (HL-60 cells; 24 hours incubation): 112 ± 10 × 10^4 cells
- number of HL-60 cells per well (HL-60 cells; 48 hours incubation): 182 ± 9 × 10^4 cells
- number of HL-60 cells per well (HL-60 cells; 72 hours incubation): 465 ± 11 × 10^4 cells
- number of HL-60 cells per well (HL-60 cells; 96 hours incubation): 618 ± 19 × 10^4 cells
- Accumulation of ascitic fluid (weight gain) (leukemia L1210 cells [6]; 0 injections): 0.47%
- Concentration in serum: IFNα (leukemia L1210 cells [6]; 0 injections): 115.0 pg/mL
- Concentration in serum: IL-1 (leukemia L1210 cells [6]; 0 injections): 36.0 pg/mL
- Concentration in serum: IL-2 (leukemia L1210 cells [6]; 0 injections): 16.9 pg/mL
- Concentration in serum: IL-6 (leukemia L1210 cells [6]; 0 injections): 63.0 pg/mL
- Concentration in serum: TNFα (leukemia L1210 cells [6]; 0 injections): 88.6 pg/mL
- Accumulation of ascitic fluid (weight gain) (leukemia L1210 cells [6]; 3 daily injections): 5.93%
- Concentration in serum: IFNα (leukemia L1210 cells [6]; 3 daily injections): 200. pg/mL
- Concentration in serum: IL-1 (leukemia L1210 cells [6]; 3 daily injections): 47.50 pg/mL
- Concentration in serum: IL-2 (leukemia L1210 cells [6]; 3 daily injections): 17.30 pg/mL
- Concentration in serum: IL-6 (leukemia L1210 cells [6]; 3 daily injections): 70.0 pg/mL
- Concentration in serum: TNFα (leukemia L1210 cells [6]; 3 daily injections): 185.0 pg/mL
- Accumulation of ascitic fluid (weight gain) (leukemia L1210 cells [6]; 7 daily injections): 21.17%
- Concentration in serum: IFNα (leukemia L1210 cells [6]; 7 daily injections): 137.0 pg/mL
- Concentration in serum: IL-1 (leukemia L1210 cells [6]; 7 daily injections): 28.0 pg/mL
- Concentration in serum: IL-2 (leukemia L1210 cells [6]; 7 daily injections): 22.8 pg/mL
- Concentration in serum: IL-6 (leukemia L1210 cells [6]; 7 daily injections): 155.0 pg/mL
- Concentration in serum: TNFα (leukemia L1210 cells [6]; 7 daily injections): 213.0 pg/mL
- Mean survival time (leukemia L1210 cells [6]; mice inoculated with leukemia L1210 cells, daily injections till day 14 or death): 9.53 ± 0.18
- Accumulation of ascitic fluid (weight gain) (leukemia P388 cells [7]; 0 injections): 0.67 ± 0.22%
- Concentration in serum: IFNα (leukemia P388 cells [7]; 0 injections): 107 ± 8.06 pg/mL
- Concentration in serum: IL-1 (leukemia P388 cells [7]; 0 injections): 30.0 ± 4.02 pg/mL
- Concentration in serum: IL-2 (leukemia P388 cells [7]; 0 injections): 14.9 ± 2.05 pg/mL
- Concentration in serum: IL-6 (leukemia P388 cells [7]; 0 injections): 72.7 ± 9.10 pg/mL
- Concentration in serum: TNFα (leukemia P388 cells [7]; 0 injections): 80.5 ± 7.14 pg/mL
- Accumulation of ascitic fluid (weight gain) (leukemia P388 cells [7]; 3 daily injections): 6.0 ± 0.49%
- Concentration in serum: IFNα (leukemia P388 cells [7]; 3 daily injections): 216. ± 19.08 pg/mL
- Concentration in serum: IL-1 (leukemia P388 cells [7]; 3 daily injections): 41.5 ± 5.81 pg/mL
- Concentration in serum: IL-2 (leukemia P388 cells [7]; 3 daily injections): 15.25 ± 1.80 pg/mL
- Concentration in serum: IL-6 (leukemia P388 cells [7]; 3 daily injections): 184.0 ± 15.6 pg/mL
- Concentration in serum: TNFα (leukemia P388 cells [7]; 3 daily injections): 204. ± 16.1 pg/mL
- Accumulation of ascitic fluid (weight gain) (leukemia P388 cells [7]; 7 daily injections): 19.9 ± 1.67%
- Concentration in serum: IFNα (leukemia P388 cells [7]; 7 daily injections): 315. ± 9.80 pg/mL
- Concentration in serum: IL-1 (leukemia P388 cells [7]; 7 daily injections): 22.3 ± 3.0 pg/mL
- Concentration in serum: IL-2 (leukemia P388 cells [7]; 7 daily injections): 20.18 ± 2.50 pg/mL
- Concentration in serum: IL-6 (leukemia P388 cells [7]; 7 daily injections): 170.6 ± 14.3 pg/mL
- Concentration in serum: TNFα (leukemia P388 cells [7]; 7 daily injections): 220. ± 19.1 pg/mL
- Mean survival time (leukemia P388 cells [7]; mice inoculated with leukemia P388 cells, daily injections till day 14 or death): 9.93 ± 0.27
- Accumulation of ascitic (weight gain, %) (leukemia L1210 cells [8]; number of injection 0): 0.42 ± 0.3%
- Accumulation of ascitic (weight gain, %) (leukemia L1210 cells [8]; number of injection 3): 8.2 ± 0.6%
- Accumulation of ascitic (weight gain, %) (leukemia L1210 cells [8]; number of injection 7): 24.8 ± 2.1%
- Mean survival time (leukemia L1210 cells [8]; mice inoculated with leukemia L1210 cells): 10.2 ± 0.8
- number of REF cells after UV-irradiation (M ± m) ([9]; 0 hours): 822 ± 14 × 10^3 cells
- number of REF cells after UV-irradiation (M ± m) ([9]; 24 hours): 523 ± 11 × 10^3 cells
- number of REF cells after UV-irradiation (M ± m) ([9]; 48 hours): 246 ± 34 × 10^3 cells
- number of REF cells after UV-irradiation (M ± m) ([9]; 72 hours): 208 ± 26 × 10^3 cells
